Reference: PubChem BioAssay (NCI)
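Protocol summary: plate cells (96-well), add compound at 5 concentrations, incubate 48 h, interpolate endpoints linearly. GI50 = concentration required for 50% inhibition of growth. The concentration for full growth arrest is given as TGI.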

What was measured:
Assay in all cases: NCI-60 cell line screen, 48 h
HS 578T breast = test system: HS 578T breast
HOP-92 NSCLC = test system: HOP-92 NSCLC
HT29 colon = test system: HT29 colon
CCRF-CEM leukemia = test system: CCRF-CEM leukemia
UACC-62 melanoma = test system: UACC-62 melanoma
SR leukemia = test system: SR leukemia
EKVX NSCLC = test system: EKVX NSCLC
TK-10 renal = test system: TK-10 renal
OVCAR-5 ovarian = test system: OVCAR-5 ovarian
K-562 leukemia = test system: K-562 leukemia
SNB-19 CNS = test system: SNB-19 CNS
RXF 393 renal = test system: RXF 393 renal
SK-MEL-5 melanoma = test system: SK-MEL-5 melanoma
SN12C renal = test system: SN12C renal
HCT-15 colon = test system: HCT-15 colon
A549 NSCLC = test system: A549 NSCLC
MDA-MB-231 breast = test system: MDA-MB-231 breast
HCC-2998 colon = test system: HCC-2998 colon
DU-145 prostate = test system: DU-145 prostate
OVCAR-8 ovarian = test system: OVCAR-8 ovarian
HL-60(TB) leukemia = test system: HL-60(TB) leukemia
SF-268 CNS = test system: SF-268 CNS
MOLT-4 leukemia = test system: MOLT-4 leukemia
SK-MEL-2 melanoma = test system: SK-MEL-2 melanoma
LOX IMVI melanoma = test system: LOX IMVI melanoma
OVCAR-4 ovarian = test system: OVCAR-4 ovarian
SF-295 CNS = test system: SF-295 CNS
SK-OV-3 ovarian = test system: SK-OV-3 ovarian
UACC-257 melanoma = test system: UACC-257 melanoma
IGROV1 ovarian = test system: IGROV1 ovarian
NCI-H460 lung = test system: NCI-H460 lung
MDA-MB-435 = test system: MDA-MB-435
COLO 205 colon = test system: COLO 205 colon
MCF7 breast = test system: MCF7 breast
SK-MEL-28 melanoma = test system: SK-MEL-28 melanoma
T-47D breast = test system: T-47D breast
U251 CNS = test system: U251 CNS
CAKI-1 renal = test system: CAKI-1 renal
A498 renal = test system: A498 renal
786-0 renal = test system: 786-0 renal
SF-539 CNS = test system: SF-539 CNS
HOP-62 NSCLC = test system: HOP-62 NSCLC
PC-3 prostate = test system: PC-3 prostate
RPMI-8226 leukemia = test system: RPMI-8226 leukemia
HCT-116 colon = test system: HCT-116 colon
ACHN renal = test system: ACHN renal
UO-31 renal = test system: UO-31 renal
NCI-H23 lung = test system: NCI-H23 lung
BT-549 breast = test system: BT-549 breast
NCI-H522 lung = test system: NCI-H522 lung
NCI-H226 lung = test system: NCI-H226 lung
OVCAR-3 ovarian = test system: OVCAR-3 ovarian
M14 melanoma = test system: M14 melanoma
KM12 colon = test system: KM12 colon
NCI/ADR-RES ovarian = test system: NCI/ADR-RES ovarian
SW-620 colon = test system: SW-620 colon
MALME-3M melanoma = test system: MALME-3M melanoma
SNB-75 CNS = test system: SNB-75 CNS

## O=C(/C=C/c1ccc(Cl)cc1)c1ccc(Nc2nc(Nc3ccc(F)cc3)nc(Nc3ccc(F)cc3)n2)cc1
HS 578T breast
  GI50: 52.3 µM
  TGI: > 100 µM
HOP-92 NSCLC
  GI50: 26.6 µM
  TGI: > 100 µM
HT29 colon
  GI50: 35.1 µM
  TGI: > 100 µM
CCRF-CEM leukemia
  GI50: 31.9 µM
  TGI: > 100 µM
UACC-62 melanoma
  GI50: > 100 µM
  TGI: > 100 µM
SR leukemia
  GI50: 22.3 µM
  TGI: 74.3 µM
EKVX NSCLC
  GI50: 95.7 µM
  TGI: > 100 µM
TK-10 renal
  GI50: > 100 µM
  TGI: > 100 µM
OVCAR-5 ovarian
  GI50: > 100 µM
  TGI: > 100 µM
K-562 leukemia
  GI50: 53.1 µM
  TGI: > 100 µM
SNB-19 CNS
  GI50: 94.1 µM
  TGI: > 100 µM
RXF 393 renal
  GI50: 21.2 µM
  TGI: 46.1 µM
SK-MEL-5 melanoma
  GI50: 46.9 µM
  TGI: > 100 µM
SN12C renal
  GI50: > 100 µM
  TGI: > 100 µM
HCT-15 colon
  GI50: 53.7 µM
  TGI: > 100 µM
A549 NSCLC
  GI50: 49.9 µM
  TGI: > 100 µM
MDA-MB-231 breast
  GI50: > 100 µM
  TGI: > 100 µM
HCC-2998 colon
  GI50: 17.7 µM
  TGI: 41.2 µM
DU-145 prostate
  GI50: > 100 µM
  TGI: > 100 µM
OVCAR-8 ovarian
  GI50: 74.4 µM
  TGI: > 100 µM
HL-60(TB) leukemia
  GI50: 39 µM
  TGI: > 100 µM
SF-268 CNS
  GI50: 56.1 µM
  TGI: > 100 µM
MOLT-4 leukemia
  GI50: 24.5 µM
  TGI: 98.7 µM
SK-MEL-2 melanoma
  GI50: 40.8 µM
  TGI: > 100 µM
LOX IMVI melanoma
  GI50: 27.4 µM
  TGI: 70.2 µM
OVCAR-4 ovarian
  GI50: 65.7 µM
  TGI: > 100 µM
SF-295 CNS
  GI50: 22.6 µM
  TGI: 58.5 µM
SK-OV-3 ovarian
  GI50: 43.7 µM
  TGI: > 100 µM
UACC-257 melanoma
  GI50: > 100 µM
  TGI: > 100 µM
IGROV1 ovarian
  GI50: 13.7 µM
  TGI: 30.9 µM
NCI-H460 lung
  GI50: 38.9 µM
  TGI: > 100 µM
MDA-MB-435
  GI50: 23 µM
  TGI: 50 µM
COLO 205 colon
  GI50: 16.7 µM
  TGI: 45.4 µM
MCF7 breast
  GI50: 9.45 µM
  TGI: > 100 µM
SK-MEL-28 melanoma
  GI50: 24.6 µM
  TGI: 61.7 µM
T-47D breast
  GI50: 19.2 µM
  TGI: > 100 µM
U251 CNS
  GI50: 19.8 µM
  TGI: 41.6 µM
CAKI-1 renal
  GI50: 80.4 µM
  TGI: > 100 µM
A498 renal
  GI50: 34.6 µM
  TGI: 98.5 µM
786-0 renal
  GI50: 23.1 µM
  TGI: 56.3 µM
SF-539 CNS
  GI50: 24 µM
  TGI: 51.9 µM
HOP-62 NSCLC
  GI50: > 100 µM
  TGI: > 100 µM
PC-3 prostate
  GI50: 41.1 µM
  TGI: > 100 µM
RPMI-8226 leukemia
  GI50: 4.99 µM
  TGI: 26.3 µM
HCT-116 colon
  GI50: 12.2 µM
  TGI: 25.5 µM
ACHN renal
  GI50: 72 µM
  TGI: > 100 µM
UO-31 renal
  GI50: 19.4 µM
  TGI: > 100 µM
NCI-H23 lung
  GI50: 41 µM
  TGI: > 100 µM
BT-549 breast
  GI50: 19 µM
  TGI: 36.9 µM
NCI-H522 lung
  GI50: 35.6 µM
  TGI: > 100 µM
NCI-H226 lung
  GI50: 24.5 µM
  TGI: 53.8 µM
OVCAR-3 ovarian
  GI50: 32.2 µM
  TGI: 89.8 µM
M14 melanoma
  GI50: 20.7 µM
  TGI: 42 µM
KM12 colon
  GI50: 25.7 µM
  TGI: > 100 µM
NCI/ADR-RES ovarian
  GI50: 43.9 µM
  TGI: > 100 µM
SW-620 colon
  GI50: 29.2 µM
  TGI: 76.5 µM
MALME-3M melanoma
  GI50: > 100 µM
  TGI: > 100 µM
SNB-75 CNS
  GI50: 67.8 µM
  TGI: > 100 µM
